Experimental data from US7910599B2 (priority 2005, dated 2011).
“Also recorded” adds a separate entry of the source.

How the values were obtained:
humans [1] = conditions: acute study; cited from earlier work
Male Wistar rats = assay: Selective extinction in alcohol-experienced rats: naloxone before alcohol access, saccharin access without injection; assay type: in vivo, rat
Description: The example included here is a prior preclinical experiment in which the alternative opioidergically-reinforced behavior was saccharin drinking. Alcohol experienced rats had continual access to food and water. Alcohol solution was available for only an hour a day for 2 to 4 days. On the next day or two, saccharin solution instead was available. Naloxone (or saline for the control group) was injected prior to the alcohol session.
Male Wistar rats (n=26) were individually housed with daily access to 10% ethanol, with food and water always present. After 2 months prior experience, the rats were switched to having 2-4 alcohol-access days interspersed with 1 or 2 days when saccharin solution (1 g/l) was available for 1 hr. […] No injections were made prior to saccharin access.

humans [2] = conditions: highly palatable versus less pleasant tasting foods; cited from earlier work
rats = assay: Rats kept continually on antagonist in the food, alcohol drinking; assay type: in vivo, rat; conditions: large doses in the food, continual presence; less reduction than selective extinction with naloxone
[3] = continual administration; cited from earlier work
humans [4] = conditions: cited from earlier work
alcoholics = conditions: cited from earlier work
[5] = system: patients suffering from binge eating; conditions: 50 mg once, twice or 3 times daily; cited from earlier work
[6] = subcutaneous naloxone prior to alcohol access, dose reduced from 10.000 to 0.005 mg/kg

## C=CCN1CC[C@]23c4c5ccc(O)c4O[C@H]2C(=O)CC[C@@]3(O)[C@H]1C5 [naloxone]
Humans [1]
  size of an eating binge: significantly reduced
Male Wistar rats; first three weeks
  saccharin drinking in the same animals: significantly increased
Male Wistar rats; first three weeks, naloxone doses in the range previously found effective
  alcohol drinking: practically abolished
Male Wistar rats; subcutaneous naloxone prior to alcohol access (10% ethanol), dose progressively reduced from 10.000 to 0.005 mg/kg
  alcohol drinking in comparison with saline controls and own prior levels: strongly reduced; also recorded: significantly reduced
Male Wistar rats; [6]
  time alcohol drinking continued to be significantly reduced: 8 weeks
  time alcohol drinking was reduced to nearly zero for most rats: 6 weeks

## C=C1CC[C@@]2(O)[C@H]3Cc4ccc(O)c5c4[C@@]2(CCN3CC2CC2)[C@H]1O5 [nalmefene]
Humans [2]
  food intake: suppresses intake of highly palatable foods but not that of less pleasant tasting ones
rats
  alcohol drinking: significantly lowered

## O=C1CC[C@@]2(O)[C@H]3Cc4ccc(O)c5c4[C@@]2(CCN3CC2CC2)[C@H]1O5 [naltrexone]
rats
  alcohol drinking: significantly lowered
[3]
  side-effects: liver toxicity
Humans [4]
  preference for saccharin: reduces
alcoholics; naltrexone given during abstinence
  efficacy in alcoholism when given during abstinence: tended to be worse than placebo
alcoholics; naltrexone paired with drinking (extinction method)
  efficacy in alcoholism when paired with alcohol drinking: effective
alcoholics; three-year follow-up, mean ± SEM
  maximum days per week (naltrexone and drinking) reported by complying patients: 1.5±0.4 days per week
[5]
  treatment of binge eating versus placebo: not significantly better than placebo
